Source: publication PMC6801739, “Antitumor Activity of a Novel Tyrosine Kinase Inhibitor AIU2001 Due to Abrogation of the DNA Damage Repair in Non-Small Cell Lung Cancer Cells” (International Journal of Molecular Sciences, 2019)

Assays:
CDK1/cyclinB = molecular target: T1, CDK1/cyclinB (Homo sapiens, UniProt P06493); test: Kinase profiling at 10 μM (Eurofins); type: biochemical; settings: read-out: Inhibitory activity
T1 construct: purchased Eurofins Pharma Discovery (KinaseProfiler); IC50 values by Reaction Biology Corp

A549 cells = test: qPCR of DNA damage repair genes and STAT5 mRNA; type: cell-based, human; settings: 24 h
Description: (§1) RNA was extracted using TRIzol® RNA isolation reagent (ThermoFisher Scientific). RNA was reverse-transcribed into cDNA using the M-MLV reverse transcriptase (Enzynomics, Daejeon, Korea) and RNase inhibitor (Promega, Madison, WI, USA). The sequence of the primers targeting human BRCA1, BRCA2, RAD51, BARD1, XRCC6, and XRCC5 are as follows: BRCA1 sense 5′-[…]-3′, BRCA1 antisense 5′-[…]-3′, BRCA2 sense 5′-[…]-3′, BRCA2 antisense 5′-[…]-3′, RAD51 sense 5′-[…]-3′, RAD51 antisense 5′-[…]-3′, BARD1 sense 5′-[…]-3′, BARD1 antisense 5′-[…]-3′, XRCC6 sense 5′-[…]-3′, XRCC6 antisense 5′-[…]-3′, XRCC5 sense 5′-[…]-3′,and XRCC5 antisense 5′-[…]-3′. β-actin was used as a housekeeping gene for normalization. The cDNA was quantified using real-time PCR with SYBR Green/fluorescein qPCR master mix (ThermoScientific, Carlsbad, CA, USA) on a Lightcycler 96 system (Roche Diagnostics, Mannheim, Germany) according to the manufacturer’s protocol.

H1299 cells = test: qPCR of DNA damage repair genes and STAT5 mRNA; type: cell-based, human; settings: 24 h
Description: as §1

T1 sequence (P06493 whole entry): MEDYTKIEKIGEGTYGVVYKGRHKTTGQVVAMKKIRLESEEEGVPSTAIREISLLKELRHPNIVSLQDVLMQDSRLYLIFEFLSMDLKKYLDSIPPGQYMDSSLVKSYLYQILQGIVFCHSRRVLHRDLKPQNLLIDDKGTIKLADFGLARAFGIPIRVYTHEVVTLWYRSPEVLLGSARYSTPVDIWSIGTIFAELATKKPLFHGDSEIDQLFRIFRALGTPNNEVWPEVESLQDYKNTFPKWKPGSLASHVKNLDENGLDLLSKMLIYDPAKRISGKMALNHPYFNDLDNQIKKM
T1 sequence (P14635 whole entry partner): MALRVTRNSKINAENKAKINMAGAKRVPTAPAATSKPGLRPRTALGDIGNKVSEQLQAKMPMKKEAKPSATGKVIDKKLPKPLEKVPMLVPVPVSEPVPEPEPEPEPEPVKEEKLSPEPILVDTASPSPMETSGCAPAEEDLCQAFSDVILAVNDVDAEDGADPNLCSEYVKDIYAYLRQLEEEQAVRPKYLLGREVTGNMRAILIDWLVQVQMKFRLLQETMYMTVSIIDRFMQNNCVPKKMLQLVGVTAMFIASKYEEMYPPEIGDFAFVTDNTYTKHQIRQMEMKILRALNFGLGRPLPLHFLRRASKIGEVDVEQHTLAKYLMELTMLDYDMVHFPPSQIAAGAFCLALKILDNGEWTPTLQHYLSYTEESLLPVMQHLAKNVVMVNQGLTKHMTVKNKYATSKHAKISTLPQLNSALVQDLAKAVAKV

inhibition at 10 µM (CDK1/cyclinB): 38%
SMILES: Brc1ccc(-c2cnc(Nc3cccc4ccccc34)o2)cc1 [AIU2001, 5-(4-bromophenyl)-N-(naphthalen-1-yl) oxazol-2-amine]
Expression level of STAT5 mRNA (A549 cells): downregulated | mRNA levels of HR (BRCA1, BRCA2, BARD1, RAD51) and NHEJ (XRCC5, XRCC6) genes (A549 cells): reduced the mRNA levels | Expression level of STAT5 mRNA (H1299 cells): downregulated | mRNA levels of HR (BRCA1, BRCA2, BARD1, RAD51) and NHEJ (XRCC5, XRCC6) genes (H1299 cells): reduced the mRNA levels
